For data set [1], the system named is HT-1080 (human lung fibrosarcoma). The experiment in a line: Cytotoxicity, MTT assay, HT-1080. As to conditions: 72 h exposure; for IC50: Homo sapiens, HT-1080, read-out: HT-1080 IC50 (MTT). In kind it is cell-based. From the text: (§1) Reduction takes place only when mitochondrial reductase enzymes are active, and therefore, conversion is directly related to the number of viable cells which can be quantified by the absorbance of the solution (between λ = 500 and 600 nm) using a spectrophotometer.

Data set [2] concerns MH-22A (mouse hepatoma). The data set can be described thus: Cytotoxicity, MTT assay, MH-22A. The data set is classed as cell-based. To be noted: 72 h exposure; for IC50: Mus musculus, read-out: MH-22A IC50 (MTT).
Excerpt: as §1

The test system of data set [3] is NIH3T3 (mouse embryonic fibroblast). The data set can be described thus: Basal cytotoxicity test, Neutral Red Uptake (NRU) assay. To be noted: for IC50: Mus musculus, NIH3T3, 24 h.
Method: The NRU cytotoxicity assay procedure is based on the ability of viable cells to incorporate and bind neutral red, a supravital dye.
Balb/c NIH 3T3 (mouse Swiss albino embryo fibroblast, ATCC® CRL-1658™) cells (9000 cells/well) were placed into 96-well plates for 24 h in Dulbecco's modified Eagle's medium (DMEM) containing 5% fetal bovine serum. Then, the cells were exposed to the test compound over a range of seven concentrations (1000, 316, 100, 31, 10, 3, and 1 μg/ml) for 24 h. Untreated cells were used as a control. After 24 h, the medium was removed from all plates. Then, 150 μl of neutral red solution was added (0.05 mg/ml NR in DMEM 24 h preincubated at 37°C and then filtered before use through a 0.22 μm syringe filter). Plates were incubated for 3 h, and then, the cells were washed three times with PBS. The dye within viable cells was released by extraction with a mixture of acetic acid, ethanol, and water (1 : 50 : 49). The absorbance of neutral red was measured using a spectrophotometer multiplate reader (Tecan Infinite M1000) at 540 nm. The optical density (OD) was calculated using the following formula: OD (treated cells) × 100/OD (control cells). The IC50 values were calculated using the GraphPad Prism® 3.0 program.
Data set [4] concerns MH-22A (mouse hepatoma). The experiment in a line: Cytotoxicity, crystal violet (CV) assay, MH-22A. The data set is classed as cell-based. To be noted: Mus musculus, 72 h exposure, read-out: MH-22A IC50 (CV). The procedure:
After incubation, the staining solution was removed. The cells were washed 4 times with water.

The test system of a further data set is NIH3T3. The experiment in a line: in vitro. As to conditions: for LD50 (calculated, NIH3T3): mouse. From the text: Data from the in vitro tests were used for estimating the starting dose for acute oral systemic toxicity tests in the rodent. The in vivo starting dose is an estimated LD50 value calculated by inserting the in vitroIC50 value into a regression formula: log LD50 (mM/kg) = 0.439 log IC50 (mM) + 0.621 [23–25]. […] Using an alternative in vitro method allows the comparison between possibly toxic new compounds and selecting compounds for further study vastly reducing the number of animal experiments.
Additionally, the compound influence on “normal” mouse fibroblasts (NIH3T3) was estimated for the studies of structure-activity relationships and exploration of the effect of substituents.

The subject of data set [5] is HT-1080 (human lung fibrosarcoma). The data set can be described thus: Cytotoxicity, crystal violet (CV) assay, HT-1080. To be noted: Homo sapiens, HT-1080, 72 h, read-out: HT-1080 IC50 (CV).
Method: IC50 is the compound concentration (μg/ml) at which 50% of the cells die. […] CV staining can be used to quantify the total DNA of the remaining population and thus is used to determine the number of live cells based on the concentration of the dye which remains after staining.
Tumor cell lines HT-1080 (human connective tissue fibrosarcoma, ATCC® CCL-121™) and MH-22A (mouse hepatocarcinoma, ECACC, cat. Nr. 96121721) were used.
HT-1080 and MH-22A cells were seeded in 96-well plates in Dulbecco's modified Eagle's (DMEM) medium containing 10% fetal bovine serum and 4 mM L-glutamine, without antibiotics, and cultivated for 72 h by exposure to different concentrations of compounds. Cell viability was measured using 3-(4,5-dimethylthiazol-2-yl)-2,5-diphenyltetrazolinium bromide (MTT). In brief, after incubating with compounds, the culture medium was removed and fresh medium with 0.2 mg/ml MTT was added in each well of the plate. After incubation (3 h, 37°C, 5% CO2), the medium with MTT was removed, and 200 μl DMSO was added at once to each sample. The samples were tested at 540 nm on a Tecan Infinite M1000 multiplate reader. The IC50 was calculated using the program GraphPad Prism® 3.0.
For the CV assay, cells were stained with 0.05% crystal violet (Sigma-Aldrich) in 30% methanol for 20 minutes at room temperature. After incubation, the staining solution was removed. The cells were washed 4 times with water. For dye solubilization, 200 μl of a solubilizing solution (0.1 M citrate buffer, pH 4.2 in 50% ethanol; 1 : 1 v/v) was added. The absorbance of the solution was measured using a Tecan Infinite M1000 multiplate spectrophotometer at a wavelength of 570 nm [21].
Where [6] appears, read: read-out: NIH3T3 IC50 (NR), Table 2, 24 h exposure.

Like-named read-outs stand apart in the source and are kept apart here.

For “1,1'-((4-(2-(Difluoromethoxy)phenyl)-3,5-bis(methoxycarbonyl)-1,4-dihydropyridine-2,6-diyl)bis(methylene))bis(1-methylpiperidin-1-ium) diperchlorate [compound 9]”, the “HT-1080 IC50 (MTT)” value in data set [1] (Table 1) is listed as “∗ (∗: not detected)”. For the same compound, in the data set on MH-22A (mouse hepatoma) [2] (Table 1), the “MH-22A IC50 (MTT)” value is given as “∗ (∗: not detected)”. In data set [3] (Table 1, 24 h exposure), the “NIH3T3 IC50 (NR)” value was “∗ (∗: not detected)”.
As to `CCOC(=O)C1=C(C[n+]2ccc(C)cc2)NC(C[n+]2ccc(C)cc2)=C(C(=O)OCC)C1c1ccccc1.[Br-].[Br-]` [compound 2, 1,1'-((3,5-Bis(ethoxycarbonyl)-4-phenyl-1,4-dihydropyridine-2,6-diyl)bis(methylene))-bis(4-methylpyridin-1-ium) dibromide], the IC50 in data set [1] (Table 1) is over 740 µg/mL; with MH-22A (mouse hepatoma) [4] (Table 1), over 100 µg/mL; with MH-22A (mouse hepatoma) [2] (Table 1) it was over 100 µg/mL; in data set [5], over 100 µg/mL; in data set [3] (read-out: NIH3T3 IC50 (NR)), over 1000 µg/mL. Besides, in the data set on NIH3T3, the “LD50 (calculated, NIH3T3)” value is recorded as over 2000 mg/kg.
`CCOC(=O)C1=C(C[n+]2ccc(N)cc2)NC(C[n+]2ccc(N)cc2)=C(C(=O)OCC)C1c1ccccc1.[Br-].[Br-]` [compound 3, 1,1'-((3,5-Bis(ethoxycarbonyl)-4-phenyl-1,4-dihydropyridine-2,6-diyl)bis(methylene))-bis(4-aminopyridin-1-ium) dibromide]: the IC50 in data set [1] (Table 1) was 441 ± 46 µg/mL; in the data set on MH-22A (mouse hepatoma) [2] (Table 1) it was over 740 µg/mL; in data set [3] (read-out: NIH3T3 IC50 (NR)), over 1000 µg/mL. Further, the “LD50 (calculated, NIH3T3)” value in the data set on NIH3T3 is given as over 2000 mg/kg.
For `CCOC(=O)C1=C(C[n+]2ccc(N(C)C)cc2)NC(C[n+]2ccc(N(C)C)cc2)=C(C(=O)OCC)C1c1ccccc1.[Br-].[Br-]` [compound 4, 1,1'-((3,5-Bis(ethoxycarbonyl)-4-phenyl-1,4-dihydropyridine-2,6-diyl)bis(methylene))-bis(4-(dimethylamino)pyridin-1-ium) dibromide], in that order: 324 ± 29 µg/mL, 608 ± 49 µg/mL, over 1000 µg/mL and over 2000 mg/kg.
For `CCOC(=O)C1=C(C[n+]2cccc(C)c2)NC(C[n+]2cccc(C)c2)=C(C(=O)OCC)C1c1ccccc1.[Br-].[Br-]` [compound 5, 1,1'-((3,5-Bis(ethoxycarbonyl)-4-phenyl-1,4-dihydropyridine-2,6-diyl)bis(methylene))-bis(3-methylpyridin-1-ium) dibromide], in that order: over 740 µg/mL, over 100 µg/mL, over 1000 µg/mL and over 2000 mg/kg.
As for `CCCCCCCCCCCCOC(=O)C1=C(C[n+]2ccccc2)NC(C[n+]2ccccc2)=C(C(=O)OCCCCCCCCCCCC)C1c1ccc(O)cc1.[Br-].[Br-]` [compound 18, 1,1'-((3,5-Bis((dodecyloxy)carbonyl)-4-(4-hydroxyphenyl)-1,4-dihydropyridine-2,6-diyl)bis(methylene))bis(pyridin-1-ium) dibromide], the IC50 came out at 10 ± 2 µg/mL in data set [1] (Table 1); 3.4 ± 0.6 µg/mL with MH-22A (mouse hepatoma) [4] (Table 1); 16 ± 2 µg/mL in the data set on MH-22A (mouse hepatoma) [2] (Table 1); 4.3 ± 0.6 µg/mL in data set [5]; 95 ± 7 µg/mL in data set [3] (read-out: NIH3T3 IC50 (NR)).
`CCCCCCCCCCCCOC(=O)C1=C(C[n+]2ccc(C)cc2)NC(C[n+]2ccc(C)cc2)=C(C(=O)OCCCCCCCCCCCC)C1c1ccc(O)cc1.[Br-].[Br-]` [compound 19, 1,1'-((3,5-Bis((dodecyloxy)carbonyl)-4-(4-hydroxyphenyl)-1,4-dihydropyridine-2,6-diyl)bis(methylene))bis(4-methylpyridin-1-ium) dibromide]: the IC50 amounted to 22 ± 5 µg/mL in data set [1] (Table 1); 21 ± 3 µg/mL in the data set on MH-22A (mouse hepatoma) [4] (Table 1); 30 ± 8 µg/mL with MH-22A (mouse hepatoma) [2] (Table 1); 32 ± 8 µg/mL in data set [5]; 44 ± 11 µg/mL in data set [3] (read-out: NIH3T3 IC50 (NR)).
In the case of `CCCCCCCCCCCCOC(=O)C1=C(C[N+](C)(C)CCCCCCCCCCCC)NC(C[N+](C)(C)CCCCCCCCCCCC)=C(C(=O)OCCCCCCCCCCCC)C1c1ccccc1.[O-][Cl+3]([O-])([O-])[O-].[O-][Cl+3]([O-])([O-])[O-]` [compound 20, N,N'-((3,5-bis((dodecyloxy)carbonyl)-4-phenyl-1,4-dihydropyridine-2,6-diyl)bis(methylene))bis(N,N-dimethyldodecan-1-aminium) diperchlorate], the IC50 in data set [1] (Table 1) was 3 ± 0.4 µg/mL; in the data set with MH-22A (mouse hepatoma) [4] (Table 1), 10 ± 2 µg/mL; in the data set with MH-22A (mouse hepatoma) [2] (Table 1) it was 10 ± 2 µg/mL; in data set [5] it was 3 ± 0.3 µg/mL; in data set [3] (read-out: NIH3T3 IC50 (NR), Table 1, 24 h exposure), 19 ± 6 µg/mL.
For the compound `O=C1CC(c2ccccc2)C(C(=O)OCCCCC(F)(F)C(F)(F)C(F)(F)C(F)(F)C(F)(F)C(F)(F)C(F)(F)C(F)(F)F)=C(C[n+]2ccccc2)N1.[Br-]` (centres unmarked) [compound 31, 1-((3-(((5,5,6,6,7,7,8,8,9,9,10,10,11,11,12,12,12-Heptadecafluorododecyl)oxy)carbonyl)-6-oxo-4-phenyl-1,4,5,6-tetrahydropyridin-2-yl)methyl)pyridin-1-ium bromide], the IC50 in data set [1] (Table 2) was 3 ± 0.2 µg/mL; with MH-22A (mouse hepatoma) [4] (Table 2), 3 ± 1 µg/mL; in the data set on MH-22A (mouse hepatoma) [2] (Table 2), 3 ± 0.6 µg/mL; in data set [5] it was 3 ± 0.3 µg/mL; in data set [3] (setting [6]), 15 ± 2 µg/mL.
On to `O=C1CC(c2ccccc2)C(C(=O)OCCCCC(F)(F)C(F)(F)C(F)(F)C(F)(F)C(F)(F)C(F)(F)C(F)(F)C(F)(F)F)=C(C[n+]2ccccc2)N1.[O-][Cl+3]([O-])([O-])[O-]` (centres unmarked) [compound 32, 1-((3-(((5,5,6,6,7,7,8,8,9,9,10,10,11,11,12,12,12-Heptadecafluorododecyl)oxy)carbonyl)-6-oxo-4-phenyl-1,4,5,6-tetrahydropyridin-2-yl)methyl)pyridin-1-ium perchlorate], for which the IC50 was determined as 3 ± 0.5 µg/mL in data set [1] (Table 2); 2 ± 0.3 µg/mL in the data set with MH-22A (mouse hepatoma) [4] (Table 2); 3 ± 0.2 µg/mL in the data set with MH-22A (mouse hepatoma) [2] (Table 2); 3 ± 0.3 µg/mL in data set [5]; 15 ± 3 µg/mL in data set [3] (setting [6]).
On the same counts, the results for `CCCCCCCCCCCC[N+](C)(C)CC1=C(C(=O)OC)C(c2ccccc2)CC(=O)N1` (centres unmarked) [compound 33, N-((3-(methyloxycarbonyl)-6-oxo-4-phenyl-1,4,5,6-tetrahydropyridin-2-yl)methyl-N,N-dimethyldodecan-1-aminium bromide] are 1 ± 0.2 µg/mL, 2 ± 0.1 µg/mL, 2 ± 0.6 µg/mL, 2 ± 0.4 µg/mL and 4 ± 1 µg/mL.
On the same counts, the results for `CCCCCCCCCCCCOC(=O)C1=C(C[N+](C)(C)CCCCCCCCCCCC)NC(=O)CC1c1ccccc1` (centres unmarked) [compound 34, N-((3-(dodecyloxycarbonyl)-6-oxo-4-phenyl-1,4,5,6-tetrahydropyridin-2-yl)methyl-N,N-dimethyldodecan-1-aminium bromide] are 2 ± 0.6 µg/mL, 3 ± 0.8 µg/mL, under 1 µg/mL, 2 ± 0.2 µg/mL and 6 ± 2 µg/mL.
On the same counts, the results for `CCCCCCCCCCCC[N+](C)(C)CC1=C(C(=O)OCCCCC(F)(F)C(F)(F)C(F)(F)C(F)(F)C(F)(F)C(F)(F)C(F)(F)C(F)(F)F)C(c2ccccc2)CC(=O)N1` (centres unmarked) [compound 35, N-((3-((5,5,6,6,7,7,8,8,9,9,10,10,11,11,12,12,12-Heptadecafluorododecyloxy)carbonyl)-6-oxo-4-phenyl-1,4,5,6-tetrahydropyridin-2-yl)methyl-N,N-dimethyldodecan-1-aminium bromide] are 30 ± 11 µg/mL, 26 ± 6 µg/mL, 30 ± 8 µg/mL, 3 ± 0.3 µg/mL and 27 ± 9 µg/mL.
As to `CCCCCCCCCCCC[N+](C)(C)CC1=C(C(=O)OC)CCC(=O)N1` [compound 36, N-((3-(methyloxycarbonyl)-6-oxo-1,4,5,6-tetrahydropyridin-2-yl)methyl-N,N-dimethyldodecan-1-aminium bromide], the IC50 stood at 1 ± 0.2 µg/mL in data set [1] (Table 2); 18 ± 3 µg/mL with MH-22A (mouse hepatoma) [4] (Table 2); 16 ± 3 µg/mL with MH-22A (mouse hepatoma) [2] (Table 2); 2 ± 0.2 µg/mL in data set [5]; 63 ± 11 µg/mL in data set [3] (setting [6]).
For `CCCCCCCCCCCCOC(=O)C1=C(C[N+](C)(C)CCCCCCCCCCCC)NC(=O)CC1` [compound 37, N-((3-(dodecyloxycarbonyl)-6-oxo-1,4,5,6-tetrahydropyridin-2-yl)methyl-N,N-dimethyldodecan-1-aminium bromide], in that order: 3 ± 0.4 µg/mL, 3 ± 0.6 µg/mL, 1 ± 0.2 µg/mL, 2 ± 0.5 µg/mL and 7 ± 1 µg/mL.
For the compound `CCCCCCCCCCCCCCCCOC(=O)/C=C(\N)C[N+](C)(C)CCCCCCCCCCCC` [compound 46, (Z,E)-N-(2-Amino-4-(hexadecyloxy)-4-oxobut-2-en-1-yl)-N,N-dimethyldodecan-1-aminium iodide], in the data set on NIH3T3 (Table 3, calculated from NIH3T3 IC50 by regression formula), the “NIH3T3 LD50” value is 637 mg/kg. For the same compound, the “IC50 in NIH3T3 cell lines” value in data set [3] is reported as “around 30 μg/ml”. Besides, in data set [3] (Table 3, 24 h exposure), the “NIH3T3 IC50 (NR)” value stood at 34 ± 8 µg/mL.

A word on the IC50: it is the concentration needed to halve the response being measured.

The record behind these values is publication PMC7790557, “Pleiotropic Properties of Amphiphilic Dihydropyridines, Dihydropyridones, and Aminovinylcarbonyl Compounds” (Oxidative Medicine and Cellular Longevity, 2020).
